Source: article PMC11017252, “Copper(II) Complexes with 2,2′:6′,2″-Terpyridine Derivatives Displaying Dimeric Dichloro−μ–Bridged Crystal Structure: Biological Activities from 2D and 3D Tumor Spheroids to In Vivo Models” (Journal of Medicinal Chemistry, 2024)

What was measured:
[1] = tested on: HCT116DoxR cells; assay: Cell cycle progression (PI, flow cytometry); settings: for cell cycle progression after 12 h / cell cycle progression after 18 h: IC50, thymidine double block
Text: Therefore, we have assessed the cytostatic potential of complexes 2, 3, 5, and 7, and their ability to interfere with the progression of the cell cycle using the fluorescent marker PI. Since this marker can intercalate with DNA, the measurement of the fluorescence emitted by flow cytometry makes it possible to assess the DNA content at each stage of the cell cycle (G0/G1, S, and G2/M).[67] To ensure that all the cells were in the same phase before their exposure to the complexes, a double block was carried out with thymidine, a DNA synthesis inhibitor.[67]
HCT116DoxR cell line was seeded in 6-well plates in a density of 1×10^5 cells/mL and incubated for
24 h. Afterwards, the culture medium was replaced by medium with IC50 concentrations of different
HCT116DoxR cell line was seeded in 6-well plates in a density of 1×10^5 cells/mL, incubated for 8 h in
a humidified atmosphere at 37 °C and 5% (v/v) CO2, and later synchronized in early S-phase with a 2
mM thymidine solution (Merck, Germany) for a 16 h period. Later, medium with thymidine was
replaced by fresh media and, after 8 h a second block with thymidine was performed in the same
concentrations of Cu(II) complexes. 0.1% (v/v) DMSO was used as the vehicle control while 5 μM
After treatment, cells were incubated for 9, 12,

[2] = tested on: BAX and BCL-2; assay: BAX and BCL-2 protein expression by Western Blot; type: cell-based, human; settings: HCT116DoxR, 48 h, IC50; normalized to β-actin
[3] = Stability and solubility in biological medium (RPMI) by UV-vis; type: physicochemical; settings: colorless RPMI, 50 μM, 37 °C
Procedure: The stability of complexes 2, 3, 5, and 7 was assessed by UV–vis spectroscopy at 0, 24, and 48 h of incubation at 37 °C.
In Figure S18, it is possible to observe the spectra of all Cu(II) complexes, where high-energy absorption bands correspond to π → π* and n → π* transitions with peaks in the 230–330 and 330–400 nm ranges, respectively, that are associated with the aromatic rings of terpyridines.[39],[49] Analyzing the spectra of complexes 2 and 3, it is possible to detect the existence of 3 bands (maximum ∼240, ∼ 290, and between 320 and 340 nm). […] Complex 7 only has 2 bands of maximum absorbance at 290 nm and between 320 and 340 nm.
Nevertheless, all Cu(II) complex solutions were freshly prepared and added immediately to cells.

[4] = tested on: HCT116DoxR cells; assay: Annexin V-FITC/PI apoptosis assay by flow cytometry; settings: 48 h; for cells (%) early apoptosis / cells (%) late apoptosis / cells (%) necrosis / cells (%) viable / percentage of apoptosis (early + late): complexes at IC50, Dox 6 μM, cisplatin 5 μM; for fold increase in apoptotic cells, normalized to DMSO: complexes at IC50, cisplatin 5 μM
Procedure: To evaluate the cell death mechanism involved in the cytotoxic effect of the selected complexes, a double-staining with Annexin V-FITC and PI was performed. […] The use of Annexin V conjugated with the fluorophore FITC allows the quantification of this interaction and subsequent identification of cells in apoptosis by flow cytometry. Furthermore, PI is a fluorophore that can intercalate with DNA and that can only enter the cell when the membrane is either compromised or ruptured, making it possible to identify cells undergoing late apoptosis and necrosis. Therefore, the double staining makes it possible to distinguish between viable cells (FITC^–; IP^–), those undergoing initial apoptosis (FITC^+; IP^–), those undergoing late apoptosis (FITC^+; IP^+), and those undergoing necrosis (FITC^–; IP^+).[55],[58]
Evaluation of apoptosis induction in HCT116DoxR cell line by flow cytometry The induction of apoptosis in HCT116DoxR cell line was evaluated by flow cytometry, using the
Annexin V-FITC Apoptosis Detection Kit (Thermo Fisher Scientific, Waltham, MA, USA). Cells
were seeded in 6-well plates at a cell density of 1×10^5 cells/mL and incubated for 24 h. Afterwards,
culture medium was replaced by medium with different Cu(II) complexes at their IC50 concentrations.
After 48 h of incubation, cells were washed with PBS 1x, detached from each well with TrypLETM
Express and washed again with PBS 1x. Cells were then resuspended in 1x annexin-binding buffer and
incubated at rt for 15 min with Annexin V-FITC and 100 μg/mL PI.
All samples were analysed by an Attune® Acoustic Focusing Flow Cytometer (Thermo Fischer
Scientific, Waltham, MA, USA) and the results were processed with Attune® Cytometric software

[5] = tested on: EB–ct-DNA adduct; assay: Ethidium bromide displacement fluorescence assay; type: binding, calf; settings: PBS; for apparent binding constant (Kapp): EB displacement, KEB = 1 × 10^7 M^–1; for Stern–Volmer quenching constant KSV: EB–ct-DNA, 0–40 μM complex
[6] = tested on: fibroblasts; assay: Cell migration (wound healing) assay; type: cell-based, human; settings: 24 h; complexes at IC50, Dox 0.4 μM; vs DMSO
Text: A wound healing assay was therefore carried out on fibroblasts to study the influence of the Cu(II) complexes on cell migration in vitro. Skin fibroblasts were the model chosen for this assay as they are essential for regenerating damage in this tissue.[85] […]
intrinsic binding constant Kb can be obtained from the ratio of the slope to the intercept of the linear fit of the plot [DNA]/[εa−εf] versus [DNA].
For emission quenching experiments, equimolar solution of ct-DNA and ethidium bromide (EB, Sigma Aldrich) was prepared and allowed to incubate for 2 h in the dark. The tested complexes were titrated into the formed EB–ct-DNA adduct and incubated for additional 30 min. The final concentration of the EB–ct-DNA adduct was 50 μM and the concentration of the complexes varied from 0 to 40 μM. The fluorescence spectra were recorded on FLS-980 spectrofluorometer (Edinburgh Instruments, Livingston, United Kingdom) with excitation wavelength 515 nm and emission wavelength of 620 nm. The apparent binding constant (Kapp) was calculated using the Equations : […]
where I0 and I are the fluorescence intensity in the absence and presence of the complexes; KSV is the Stern-Volmer quenching constant; [Q] is the concentration of the complexes; [Q1/2] is the concentration of the complex causing 50% reduction in the fluorescence intensity; K = 1×107 […]
conditions mentioned before until the presence of a confluent monolayer was detected. A scratch was made on the surface of each well using a sterile 200 μL micropipette tip and the cells were […]
Each plate was then incubated for 24 h in the same conditions mentioned before. […]
The width of each scratch in each image was measured via ImageJ software. […]
The ex-ovo CAM assay was performed to evaluate the copper(II) complexes’ effect on angiogenesis, as already described in literature11,12. […] Newly formed blood vessels were manually counted via ImageJ software. […]
All results were expressed as mean ± SEM of at least two independent biological assays, each obtained by technical duplicates, unless otherwise specified. […]

[7] = tested on: HCT116DoxR spheroids; assay: MTS cell viability assay in 3D HCT116DoxR spheroids; type: cell-based, human; settings: 6-day-old spheroids, 48 h of exposure
[8] = tested on: pUC18 plasmid DNA; assay: pDNA cleavage in vitro (agarose gel electrophoresis); type: biochemical, E. coli; settings: for concentration at which the interaction with pDNA reaches saturation / pDNA cleavage mode: 100 ng pUC18, 24 h; for pDNA cleavage mode: 5–100 μM complex; for effect of NaN3 (singlet oxygen scavenger) on pDNA cleavage by the complex: 24 h, 50 μM complex + 50 μM NaN3
[9] = tested on: A2780 (ovarian carcinoma cell line); assay: MTS cell viability assay, 2D culture, A2780; type: cell-based, human; settings: 48 h of exposure
Procedure: (§1) The in vitro cytotoxic potential of Cu(II) complexes in tumor and healthy cells was assessed using the MTS assay, a colorimetric method that allows the quantification of viable cells in culture.[46]
Cell culture and maintenance
(§2) The cancer cell lines HCT116 (colorectal carcinoma) and A2780 (ovarian carcinoma) were obtained
(§3) from the American Type Culture Collection (ATCC®, Manassas, VA, USA), as well as the normal
human primary dermal fibroblasts.
(§4) Apart from the A2780 cell line, which was cultured in Roswell Park Memorial Institute (RPMI)
(§5) medium, all cells were cultured in Dulbecco’s modified Eagle medium (DMEM). Both media were
(§6) supplemented with 10% (v/v) fetal bovine serum (FBS) and 1% (v/v) of a Pen/Strep
(§7) (Penicillin/Streptomycin) solution. To maintain the resistant phenotype of the HCT116DoxR cell line,
(§8) the medium was additionally supplemented with 3.6 μM Dox4. All media and supplements were
(§9) purchased from Thermo Fischer Scientific (Waltham, MA, USA).
(§10) Cells were maintained in 25 cm2 T-flasks (T25) in a humidified atmosphere at 37 °C and 5% (v/v) CO
(§11) (SANYO CO2 Incubator, Electric Biomedical Co., Osaka, Japan).
(§12) The effect of Cu(II) complexes on cell viability was studied in HCT116, HCT116DoxR, and A2780
(§13) cancer cell lines and in normal human primary fibroblasts. Cells were seeded in a density of 0.75×105
(§14) cells/mL into 96-well plates and incubated in a humidified atmosphere at 37 °C and 5% (v/v) CO2 for
(§15) 24 h. After incubation, complexes were weighed, immediately solubilized in 100% (v/v) DMSO and
(§16) diluted for the final concentration with cell culture medium. The medium in each well was replaced by
(§17) a solution of fresh medium containing each Cu(II) complex (concentrations ranging from 0.01 μM to
(§18) as negative and positive controls, respectively.
(§19) Following a second incubation period of 48 h in the same conditions, the supernatant of each well was
(§20) replaced by a solution containing MTS reagent (3-(4,5-dimethylthiazol-2-yl)-5-(3-
(§21) carboxymethoxyphenyl)-2-(4-sulfophenyl)-2H-tetrazolium) provided by the CellTiter 96® AQueous
(§22) Non-Radioactive Cell Proliferation Assay Kit (Promega, Madison, WI, EUA) for a 30 minutes
(§23) incubation. The percentage of viable cells was indirectly determined by the spectrophotometric
(§24) quantification at 490 nm in a microplate reader, Tecan Infinite M200 (Tecan, Männedorf, Switzerland)
(§25) of formazan production, resultant from the reduction of the MTS reagent by mitochondrial
(§26) dehydrogenases. Since these enzymes are only active in viable cells, the absorbance value measured is
(§27) directly proportional to the percentage of viable cells in culture5.
(§28) By analysing the cell viability as a function of log10(concentration) using Prism 8 (GraphPad
(§29) in cell viability) of each complex in the respective cell line at 48 h. The selective index (SI) for each
(§30) complex was also determined by dividing the IC50 of human fibroblasts by the respective IC50 in each
(§31) cancer cell line (allowing us to understand how much active a complex is in tumor versus normal cell).

[10] = tested on: HCT116DoxR (Dox-resistant colorectal carcinoma cell line); assay: MTS cell viability assay, 2D culture, HCT116DoxR; settings: read-out: IC50 (μM) HCT116DoxR, 48 h of exposure
Procedure: as §1
In this regard, cell viability was performed for each of the ligands on HCT116DoxR and fibroblasts.
Cell culture and maintenance
as §2, §3
human primary dermal fibroblasts.
as §4, §5, §6, §7, §8, §9, §10, §11, §12, §13, §14, §15, §16, §17, §18, §19, §20, §21, §22, §23, §24, §25, §26, §27

[11] = tested on: normal human primary dermal fibroblasts; assay: MTS cell viability assay, normal fibroblasts; type: cell-based; settings: 48 h of exposure
Procedure: as §1
Cell culture and maintenance
as §2, §3
human primary dermal fibroblasts.
as §4, §5, §6, §7, §8, §9, §10, §11, §12, §13, §14, §15, §16, §17, §19, §20, §22, §23, §24, §25

[12] = tested on: HCT116 (colorectal carcinoma cell line); assay: MTS cell viability assay, 2D culture, HCT116; type: cell-based, human; settings: 48 h of exposure
Procedure: as §1
Cell culture and maintenance
as §2, §3
human primary dermal fibroblasts.
as §4, §5, §6, §7, §8, §9, §10, §11, §12, §13, §14, §15, §16, §17, §18, §19, §20, §21, §22, §23, §24, §25, §26, §27, §28, §29, §30, §31

[13] = tested on: chicken embryos; assay: Ex-ovo chick chorioallantoic membrane (CAM) assay; type: in vivo; settings: IC50, vs DMSO control
[14] = tested on: HCT116, A2780, A549, and MCF7 cell lines; parameters: method as in PMID 28702618; settings: cited from earlier work
[15] = tested on: CAM; parameters: method as in PMID 33823390; settings: cited from earlier work

Row | SMILES | cell cycle progression after 12 h [1] | expression of BAX compared to the DMSO control [2] | expression of BCL-2 compared to the DMSO control [2] | maximum absorbances after 24 or 48 h compared to 0 h (reduction of solubility) [3] | cells (%) early apoptosis [4] | cells (%) late apoptosis [4] | cells (%) necrosis [4] | cells (%) viable [4] | percentage of apoptosis (early + late) [4] | fold increase in apoptotic cells, normalized to DMSO [4] | apparent binding constant (Kapp) [5] | Stern–Volmer quenching constant KSV [5] | fibroblast migration (% of remission) [6] | IC50 [7] | concentration at which the interaction with pDNA reaches saturation [8] | pDNA cleavage mode [8] | effect of NaN3 (singlet oxygen scavenger) on pDNA cleavage by the complex [8] | IC50 [9] | IC50 [10] | IC50 [11] | also measured
1 | F[P-](F)(F)(F)(F)F.F[P-](F)(F)(F)(F)F.[Cl][Cu].[Cl][Cu].c1ccc(-c2cc(-c3ccnc4ccccc34)cc(-c3ccccn3)n2)nc1.c1ccc(-c2cc(-c3ccnc4ccccc34)cc(-c3ccccn3)n2)nc1 [complex 2, [Cu2Cl2(4′-(4-Quinolyl)-terpy)2](PF6)2] | delays cell cycle progression in the G2/M phase | decreases | increases | slight decrease | 47.3 ± 2.9% | 22.7 ± 4.6% | 0.3 ± 0.4% | 29.7 ± 6.3% | 65 to 70% | ~6.4 fold | 1.23 × 10^6 M^–1 | 2450 M⁻¹ | lower compared to the positive control Dox | 15.2 ± 0.8 µM | 25 μM | single strands | no effect | 0.54 ± 0.07 µM | 0.25 ± 0.02 µM | 31.36 ± 0.02 µM | cell cycle progression after 24 h ([1]; 24 h, complexes at IC50, cisplatin 5 μM): delay the cycle in the G2/M phase; IC50 [12]: 0.31 ± 0.01 µM; formation of new blood vessels after 24 h [13]: no pro- or antiangiogenic effect; formation of new blood vessels after 48 h [13]: antiangiogenic effect
2 | Cn1cccc1-c1cc(-c2ccccn2)nc(-c2ccccn2)c1.[Cl][Cu][Cl] |  |  |  |  |  |  |  |  |  |  |  |  |  |  |  |  |  |  |  |  | cytotoxic activity [14]: no cytotoxic activity
3 | COc1ccc(-c2cc(-c3ccccn3)nc(-c3ccccn3)c2)c2ccccc12.COc1ccc(-c2cc(-c3ccccn3)nc(-c3ccccn3)c2)c2ccccc12.F[P-](F)(F)(F)(F)F.F[P-](F)(F)(F)(F)F.[Cl][Cu+].[Cl][Cu+] [complex 3, [Cu2Cl2(4′-(4-Methoxy-1-naphthyl)-terpy)2](PF6)2] | delays cell cycle progression in the G2/M phase | decreases | increases | slight decrease | 51.3 ± 5.7% | 14.9 ± 3.6% | 0.2 ± 0.2% | 33.7 ± 3.6% | 65 to 70% | ~6.4 fold | 3.07 × 10^6 M^–1 | 6060 M⁻¹ | lower compared to the positive control Dox | 6.35 ± 0.12 µM | 50 μM | single strands | partially reversed | 0.66 ± 0.07 µM | 0.15 ± 0.01 µM | 6.24 ± 0.03 µM | cell cycle progression after 18 h [1]: delay in cycle progression in the G0/G1 phase; IC50 [12]: 0.13 ± 0.02 µM; formation of new blood vessels after 24 h [13]: antiangiogenic potential; formation of new blood vessels after 48 h [13]: greater decrease in the % of blood vessels formed
4 | F[P-](F)(F)(F)(F)F.[Cl][Cu].c1ccc(-c2cc(-c3ccc4ccccc4n3)cc(-c3ccccn3)n2)nc1 [[Cu(4′-(2-quinolinyl)-terpy)Cl](PF6)] |  |  |  |  |  |  |  |  |  |  |  |  |  |  |  |  |  |  |  |  | toxicity in an in vivo model of CAM [15]: low toxicity
5 | F[P-](F)(F)(F)(F)F.F[P-](F)(F)(F)(F)F.[Cl][Cu].[Cl][Cu].c1ccc(-c2cc(-c3ccco3)cc(-c3ccccn3)n2)nc1.c1ccc(-c2cc(-c3ccco3)cc(-c3ccccn3)n2)nc1 [complex 5, [Cu2Cl2(4′-(2-Furanyl)-terpy)2](PF6)2] | delays cell cycle progression in the G2/M phase | decreases | increases | slight decrease | 47.2 ± 10.2% | 18.7 ± 5.4% | 0.2 ± 0.2% | 33.9 ± 5.3% | 65 to 70% | ~6.4 fold | 1.84 × 10^6 M^–1 | 3640 M⁻¹ | lower compared to the positive control Dox | 14 ± 0.6 µM | 50 μM | single and double strands | almost completely reversed | 0.79 ± 0.05 µM | 0.22 ± 0.01 µM | 12.57 ± 0.02 µM | cell cycle progression after 18 h [1]: delay in cycle progression in the G0/G1 phase; IC50 [12]: 0.26 ± 0.03 µM; formation of new blood vessels after 24 h [13]: antiangiogenic potential; formation of new blood vessels after 48 h [13]: greater decrease in the % of blood vessels formed
